Test results reported in PubChem BioAssay (NCI).
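Tested at 5 concentrations; 48 h exposure; 96-well plates; endpoints linearly interpolated, else capped at highest concentration. Here, GI50 denotes the concentration required for 50% inhibition of growth. The concentration for full growth arrest is given as TGI.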

How the values were obtained:
Assay in all cases: NCI-60 cell line screen, 48 h
786-0 renal = system: 786-0 renal
A498 renal = system: A498 renal
A549 NSCLC = system: A549 NSCLC
ACHN renal = system: ACHN renal
BT-549 breast = system: BT-549 breast
CAKI-1 renal = system: CAKI-1 renal
CCRF-CEM leukemia = system: CCRF-CEM leukemia
COLO 205 colon = system: COLO 205 colon
DU-145 prostate = system: DU-145 prostate
EKVX NSCLC = system: EKVX NSCLC
HCC-2998 colon = system: HCC-2998 colon
HCT-116 colon = system: HCT-116 colon
HCT-15 colon = system: HCT-15 colon
HL-60(TB) leukemia = system: HL-60(TB) leukemia
HOP-62 NSCLC = system: HOP-62 NSCLC
HOP-92 NSCLC = system: HOP-92 NSCLC
HS 578T breast = system: HS 578T breast
HT29 colon = system: HT29 colon
IGROV1 ovarian = system: IGROV1 ovarian
K-562 leukemia = system: K-562 leukemia
KM12 colon = system: KM12 colon
LOX IMVI melanoma = system: LOX IMVI melanoma
M14 melanoma = system: M14 melanoma
MALME-3M melanoma = system: MALME-3M melanoma
MCF7 breast = system: MCF7 breast
MDA-MB-231 breast = system: MDA-MB-231 breast
MDA-MB-435 = system: MDA-MB-435
MDA-MB-468 breast = system: MDA-MB-468 breast
MOLT-4 leukemia = system: MOLT-4 leukemia
NCI-H226 lung = system: NCI-H226 lung
NCI-H23 lung = system: NCI-H23 lung
NCI-H460 lung = system: NCI-H460 lung
NCI-H522 lung = system: NCI-H522 lung
NCI/ADR-RES ovarian = system: NCI/ADR-RES ovarian
OVCAR-3 ovarian = system: OVCAR-3 ovarian
OVCAR-4 ovarian = system: OVCAR-4 ovarian
OVCAR-5 ovarian = system: OVCAR-5 ovarian
OVCAR-8 ovarian = system: OVCAR-8 ovarian
PC-3 prostate = system: PC-3 prostate
RPMI-8226 leukemia = system: RPMI-8226 leukemia
RXF 393 renal = system: RXF 393 renal
SF-268 CNS = system: SF-268 CNS
SF-295 CNS = system: SF-295 CNS
SF-539 CNS = system: SF-539 CNS
SK-MEL-2 melanoma = system: SK-MEL-2 melanoma
SK-MEL-28 melanoma = system: SK-MEL-28 melanoma
SK-MEL-5 melanoma = system: SK-MEL-5 melanoma
SK-OV-3 ovarian = system: SK-OV-3 ovarian
SN12C renal = system: SN12C renal
SNB-19 CNS = system: SNB-19 CNS
SNB-75 CNS = system: SNB-75 CNS
SR leukemia = system: SR leukemia
SW-620 colon = system: SW-620 colon
T-47D breast = system: T-47D breast
TK-10 renal = system: TK-10 renal
U251 CNS = system: U251 CNS
UACC-257 melanoma = system: UACC-257 melanoma
UACC-62 melanoma = system: UACC-62 melanoma
UO-31 renal = system: UO-31 renal

CC1(C)CC[C@]2(C(=O)O)CC[C@]3(C)C(=CCC4[C@@]5(C)C[C@@H](O)[C@@H]6OC(c7ccc(F)cc7)OC[C@@]6(C)C5CC[C@]43C)C2C1 (stereo partly drawn)
GI50 (786-0 renal): 7.56 µM | TGI (786-0 renal): 27.5 µM | GI50 (A498 renal): 5.41 µM | TGI (A498 renal): 20.1 µM | GI50 (A549 NSCLC): 2.81 µM | TGI (A549 NSCLC): 16.5 µM | GI50 (ACHN renal): 3.56 µM | TGI (ACHN renal): 32.5 µM | GI50 (BT-549 breast): 4.34 µM | TGI (BT-549 breast): 17.9 µM | GI50 (CAKI-1 renal): 9.28 µM | TGI (CAKI-1 renal): 26.3 µM | GI50 (CCRF-CEM leukemia): 3.58 µM | TGI (CCRF-CEM leukemia): 25.8 µM | GI50 (COLO 205 colon): 4.53 µM | TGI (COLO 205 colon): 17.9 µM | GI50 (DU-145 prostate): 5.23 µM | TGI (DU-145 prostate): > 100 µM | GI50 (EKVX NSCLC): 3.14 µM | TGI (EKVX NSCLC): 15.3 µM | GI50 (HCC-2998 colon): 4.34 µM | TGI (HCC-2998 colon): 14.8 µM | GI50 (HCT-116 colon): 3.5 µM | TGI (HCT-116 colon): 13.7 µM | GI50 (HCT-15 colon): 2.42 µM | TGI (HCT-15 colon): 11.6 µM | GI50 (HL-60(TB) leukemia): 2.29 µM | TGI (HL-60(TB) leukemia): 6.41 µM | GI50 (HOP-62 NSCLC): 6.68 µM | TGI (HOP-62 NSCLC): 29.6 µM | GI50 (HOP-92 NSCLC): 5.32 µM | TGI (HOP-92 NSCLC): 27.6 µM | GI50 (HS 578T breast): 5.56 µM | TGI (HS 578T breast): 48.5 µM | GI50 (HT29 colon): 5.09 µM | TGI (HT29 colon): 30.3 µM | GI50 (IGROV1 ovarian): 7.62 µM | TGI (IGROV1 ovarian): 24.9 µM | GI50 (K-562 leukemia): 2.26 µM | TGI (K-562 leukemia): > 100 µM | GI50 (KM12 colon): 4.2 µM | TGI (KM12 colon): 18.9 µM | GI50 (LOX IMVI melanoma): 4.13 µM | TGI (LOX IMVI melanoma): 16.2 µM | GI50 (M14 melanoma): 10.7 µM | TGI (M14 melanoma): 27 µM | GI50 (MALME-3M melanoma): 8.39 µM | TGI (MALME-3M melanoma): 22.9 µM | GI50 (MCF7 breast): 4.03 µM | TGI (MCF7 breast): 28.2 µM | GI50 (MDA-MB-231 breast): 13 µM | TGI (MDA-MB-231 breast): 28.7 µM | GI50 (MDA-MB-435): 10.8 µM | TGI (MDA-MB-435): 23.7 µM | GI50 (MDA-MB-468 breast): 3.26 µM | TGI (MDA-MB-468 breast): 19.5 µM | GI50 (MOLT-4 leukemia): 2.64 µM | TGI (MOLT-4 leukemia): 12 µM | GI50 (NCI-H226 lung): 3.96 µM | TGI (NCI-H226 lung): 23.5 µM | GI50 (NCI-H23 lung): 4.95 µM | TGI (NCI-H23 lung): 21.1 µM | GI50 (NCI-H460 lung): 4.38 µM | TGI (NCI-H460 lung): 18.1 µM | GI50 (NCI-H522 lung): 5.21 µM | TGI (NCI-H522 lung): 23.8 µM | GI50 (NCI/ADR-RES ovarian): 4.3 µM | TGI (NCI/ADR-RES ovarian): 22.8 µM | GI50 (OVCAR-3 ovarian): 4.13 µM | TGI (OVCAR-3 ovarian): 18.8 µM | GI50 (OVCAR-4 ovarian): 5.63 µM | TGI (OVCAR-4 ovarian): 38.4 µM | GI50 (OVCAR-5 ovarian): 13.3 µM | TGI (OVCAR-5 ovarian): 33.5 µM | GI50 (OVCAR-8 ovarian): 6.96 µM | TGI (OVCAR-8 ovarian): 40.2 µM | GI50 (PC-3 prostate): 4.18 µM | TGI (PC-3 prostate): > 100 µM | GI50 (RPMI-8226 leukemia): 4.35 µM | TGI (RPMI-8226 leukemia): > 100 µM | GI50 (RXF 393 renal): 6.66 µM | TGI (RXF 393 renal): 20.5 µM | GI50 (SF-268 CNS): 5.3 µM | TGI (SF-268 CNS): > 100 µM | GI50 (SF-295 CNS): 3.57 µM | TGI (SF-295 CNS): 15.9 µM | GI50 (SF-539 CNS): 6.71 µM | TGI (SF-539 CNS): 21.3 µM | GI50 (SK-MEL-2 melanoma): 9.47 µM | TGI (SK-MEL-2 melanoma): 24.2 µM | GI50 (SK-MEL-28 melanoma): 12.5 µM | TGI (SK-MEL-28 melanoma): 25.4 µM | GI50 (SK-MEL-5 melanoma): 4.13 µM | TGI (SK-MEL-5 melanoma): 16.2 µM | GI50 (SK-OV-3 ovarian): 11.6 µM | TGI (SK-OV-3 ovarian): 39.2 µM | GI50 (SN12C renal): 7.55 µM | TGI (SN12C renal): 30.2 µM | GI50 (SNB-19 CNS): 7.35 µM | TGI (SNB-19 CNS): > 100 µM | GI50 (SNB-75 CNS): 2.05 µM | TGI (SNB-75 CNS): 45.3 µM | GI50 (SR leukemia): 4.18 µM | TGI (SR leukemia): 37 µM | GI50 (SW-620 colon): 6.54 µM | TGI (SW-620 colon): 30.3 µM | GI50 (T-47D breast): 11.8 µM | TGI (T-47D breast): 95.9 µM | GI50 (TK-10 renal): 10.1 µM | TGI (TK-10 renal): > 100 µM | GI50 (U251 CNS): 3.54 µM | TGI (U251 CNS): 17 µM | GI50 (UACC-257 melanoma): 10.9 µM | TGI (UACC-257 melanoma): 31 µM | GI50 (UACC-62 melanoma): 11.4 µM | TGI (UACC-62 melanoma): 24.3 µM | GI50 (UO-31 renal): 4.17 µM | TGI (UO-31 renal): 21.7 µM
